We go through two compounds from patent US20240174649A1, “CULLIN-RING E3 UBIQUITIN LIGASE 4 INHIBITOR COMPOUNDS AND METHODS OF THEIR USE” (ICAHN SCHOOL OF MEDICINE AT MOUNT SINAI, priority 2021, published 2024).

One data set addresses E3 CRL4^CRBN (Homo sapiens (Human), UniProt Q13619). As to the kind of experiment: Lenalidomide-dependent ubiquitination of CK1α by CRL4^CRBN. It is filed as biochemical. Here is the method:
To prepare Flag-CK1α as a substrate for ubiquitination experiments described in FIGS. 2A-E, the expression vector (purchased from Addgene) was introduced to HEK-293T cells by transfection using Lipofectamine RNAIMAX (ThermoFisher) according to manufacturer's protocols. Cell extracts were prepared and the concentration of Flag-CK1α was determined using immunoblot analysis with purified GST-CK1α (Sigma) as a standard. Typically, 50-100 μl of extracts was used to attach to ˜15 μl of M2 beads (Sigma) at 4° C. for 2 hours. Unbound materials were removed by washing (first three times with a washing buffer containing 50 mM Tris-HCl, pH8.0, 1% Triton X-100, 0.5M NaCl, and then twice with buffer A plus 50 mM NaCl) and the resulting beads were used in the ubiquitination assay (15 μl). The concentration of Flag-CK1α was determined to be ˜100 nM.
Immobilized, Flag-CK1α-containing beads were initially incubated with a reaction mixture (10 μl) containing 50 mM Tris-HCl (pH7.4), 0.5 mM DTT, 0.1 mg/ml of BSA, 5 mM MgCl2, 100 nM CRL4^CRBN, 1 μM Lenalidomide (Selleckchem), 1 μM Fluorescein-Ub, 100 nM E1, and 1 μM UbcH5c. ATP (20 mM) was added last to initiate the reaction. The reaction was incubated on a thermomixer (1,300 rpm; Eppendorf) at 37° C. for 5 min. The resulting beads were then added with a second reaction mixture (5 μl) containing 50 mM Tris-HCl (pH7.4), 0.5 mM DTT, 0.1 mg/ml of BSA, 5 mM MgCl2, 4 μM I-Ub-Q31C/K48R, and 1 μM Cdc34b, in the presence or absence of E3 inhibitors as specified. The reaction was incubated on a thermomixer at 37° C. for times as indicated. The concentrations of enzymes, Ubs, and compounds stated above were adjusted based on a final volume of 15 μl. The beads were then washed using conditions as described above. Materials eluted from the beads were separated by 4-20% SDS-PAGE followed by detection with fluorescence scanning (Typhoon 9500) or immunoblot using anti-CK1α antibody (Abcam). […]

The next data set has as its target ROC1-CUL1 (Homo sapiens (Human), UniProt Q13616). Nature of the data set: Gel-based di-Ub synthesis. In kind it is biochemical. Here is the method: For the experiment shown in FIG. 7 and FIGS. 8A-B, the di-Ub synthesis reaction was carried out by preassembling the donor Ub mix. The donor Ub mixture (5 μl) contained 50 mM Tris HCl (pH 7.4), 5 mM MgCl2, 2 mM ATP, 0.5 mM DTT, 0.1 mg/mL BSA, 1 μM Ub-NC-I555, 0.1 μM E1, and 2 μM Cdc34b. The reaction was incubated for 5 min at 37° C. Compounds, in the amounts indicated, were added followed by the addition of ROC1-CUL1 (or related E3 subcomplex) in amounts as indicated and 10 μM PK-Ub (1-74) (as a receptor). The final volume was adjusted to 10 μl. The reaction was incubated for 10 min at 37° C.
For the experiments shown in FIG. 8C and FIG. 9, the reaction was assembled in a 10-μl mixture containing 50 mM Tris HCl (pH 7.4), 5 mM MgCl2, 0.5 mM DTT, 0.1 mg/mL BSA, 0.05 μM Ub-NC-I555, 2,5 μM PK-Ub (1-74), 0.1 μM E1, 1 μM Cdc34b, and 80 nM ROC1-CUL1 with or without compound. The reaction was initiated by the addition of 2 mM ATP. The products were separated by 4-20% SDS/PAGE and were visualized and quantified on a Typhoon FLA 9500 laser scanner (GE).

In another data set the test system is cancer cells. Nature of the data set: Apoptosis, Annexin V flow cytometry. It is filed as cell-based. A digest of the protocol:
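5×10^4 cells were seeded 24 h before treatment, then cultured with compound for 48 h. Pelleted cells were washed in Annexin V binding buffer (HEPES pH 7.4, with CaCl2) and stained in the dark with Annexin V-FITC (2 μg/ml) for 5 min. Apoptosis was read by flow cytometry.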
A general note: In flow cytometry, cells or beads pass a laser one at a time.

The next data set relates to CACO-2. As to the kind of experiment: CACO-2 permeability. In kind it is in vitro ADME. The following applies: for PGP substrate: PGP-transporter (MDR1). As to the method:
(§1) ADME studies on compounds #33-11 and KH-4-43 for “absorption, distribution, metabolism, and excretion” were carried out at CRO, BioDuro. Kinetic solubility, plasma and microsome stability in rat, mouse and human, as well as Caco-2 Permeability were examined.

The nature of the next data set: Kinetic solubility. It is filed as physicochemical. The following applies: pH 7.4. Here is the method:
as §1

Another data set in a line: Mouse i.p. PK. In kind it is in vivo.
Data set [1] in a line: End-of-study PK in MV4-11 xenograft mice. It is filed as in vivo. As to conditions: mouse. As to the method:
Tumor tissues were weighed at the end of study. At the endpoint, 100 μl blood and tumors from Group 3 (G3) and Group 4 (G4) were collected as shown in the Table 3, for further pharmacokinetics or biomarker analysis. Plasma were isolated from all blood samples.

The subject of a further data set is MV4-11 tumors. As to the kind of experiment: AML MV4-11 subcutaneous xenograft. As to conditions: for tumor inhibition value: IP.

ROC1-CUL1, sequence (Q13616 whole entry): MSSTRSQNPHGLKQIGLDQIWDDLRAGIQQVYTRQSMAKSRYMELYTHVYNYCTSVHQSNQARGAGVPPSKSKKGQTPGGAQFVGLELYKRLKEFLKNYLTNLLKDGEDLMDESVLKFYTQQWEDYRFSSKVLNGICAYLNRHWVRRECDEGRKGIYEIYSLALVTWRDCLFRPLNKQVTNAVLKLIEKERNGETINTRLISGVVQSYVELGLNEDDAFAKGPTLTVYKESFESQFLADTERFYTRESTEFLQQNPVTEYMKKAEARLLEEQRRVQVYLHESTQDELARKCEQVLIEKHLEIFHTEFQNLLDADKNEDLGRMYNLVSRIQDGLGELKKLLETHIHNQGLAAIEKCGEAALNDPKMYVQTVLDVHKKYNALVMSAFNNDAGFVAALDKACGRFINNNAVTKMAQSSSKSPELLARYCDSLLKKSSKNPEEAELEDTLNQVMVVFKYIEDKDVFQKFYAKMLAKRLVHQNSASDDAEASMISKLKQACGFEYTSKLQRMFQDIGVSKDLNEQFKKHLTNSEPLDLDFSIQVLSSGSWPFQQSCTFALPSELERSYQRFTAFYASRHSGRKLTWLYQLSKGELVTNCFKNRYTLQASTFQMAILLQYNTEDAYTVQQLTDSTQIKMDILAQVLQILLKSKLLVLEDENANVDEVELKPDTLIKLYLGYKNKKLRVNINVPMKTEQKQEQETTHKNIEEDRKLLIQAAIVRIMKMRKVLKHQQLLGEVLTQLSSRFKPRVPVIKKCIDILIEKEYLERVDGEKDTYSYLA
ROC1-CUL1, sequence (P62877 whole entry partner): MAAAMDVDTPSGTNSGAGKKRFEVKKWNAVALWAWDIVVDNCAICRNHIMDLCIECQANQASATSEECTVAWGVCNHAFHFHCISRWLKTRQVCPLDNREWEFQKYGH
E3 CRL4^CRBN, sequence (Q13619 whole entry): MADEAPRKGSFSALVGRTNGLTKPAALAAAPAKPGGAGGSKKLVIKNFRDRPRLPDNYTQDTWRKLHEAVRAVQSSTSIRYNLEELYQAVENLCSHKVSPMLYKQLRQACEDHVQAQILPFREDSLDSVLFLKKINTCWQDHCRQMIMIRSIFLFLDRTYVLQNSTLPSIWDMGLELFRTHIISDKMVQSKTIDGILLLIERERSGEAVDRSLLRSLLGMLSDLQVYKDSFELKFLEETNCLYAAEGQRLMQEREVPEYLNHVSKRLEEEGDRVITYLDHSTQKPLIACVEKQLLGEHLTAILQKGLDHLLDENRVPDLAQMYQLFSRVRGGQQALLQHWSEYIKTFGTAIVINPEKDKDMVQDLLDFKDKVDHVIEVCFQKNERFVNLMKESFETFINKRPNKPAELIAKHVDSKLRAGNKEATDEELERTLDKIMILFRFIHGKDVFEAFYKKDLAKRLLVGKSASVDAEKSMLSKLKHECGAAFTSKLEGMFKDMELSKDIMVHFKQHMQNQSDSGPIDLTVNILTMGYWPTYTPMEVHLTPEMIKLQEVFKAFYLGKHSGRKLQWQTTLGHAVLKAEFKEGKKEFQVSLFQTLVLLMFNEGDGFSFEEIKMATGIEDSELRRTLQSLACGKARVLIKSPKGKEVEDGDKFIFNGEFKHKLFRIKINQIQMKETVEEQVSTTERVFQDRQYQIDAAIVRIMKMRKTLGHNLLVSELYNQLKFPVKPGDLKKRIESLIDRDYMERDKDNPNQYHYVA
E3 CRL4^CRBN, sequence (P62877 whole entry partner): as the sequence (P62877 whole entry partner) above
E3 CRL4^CRBN, sequence (Q16531 whole entry partner): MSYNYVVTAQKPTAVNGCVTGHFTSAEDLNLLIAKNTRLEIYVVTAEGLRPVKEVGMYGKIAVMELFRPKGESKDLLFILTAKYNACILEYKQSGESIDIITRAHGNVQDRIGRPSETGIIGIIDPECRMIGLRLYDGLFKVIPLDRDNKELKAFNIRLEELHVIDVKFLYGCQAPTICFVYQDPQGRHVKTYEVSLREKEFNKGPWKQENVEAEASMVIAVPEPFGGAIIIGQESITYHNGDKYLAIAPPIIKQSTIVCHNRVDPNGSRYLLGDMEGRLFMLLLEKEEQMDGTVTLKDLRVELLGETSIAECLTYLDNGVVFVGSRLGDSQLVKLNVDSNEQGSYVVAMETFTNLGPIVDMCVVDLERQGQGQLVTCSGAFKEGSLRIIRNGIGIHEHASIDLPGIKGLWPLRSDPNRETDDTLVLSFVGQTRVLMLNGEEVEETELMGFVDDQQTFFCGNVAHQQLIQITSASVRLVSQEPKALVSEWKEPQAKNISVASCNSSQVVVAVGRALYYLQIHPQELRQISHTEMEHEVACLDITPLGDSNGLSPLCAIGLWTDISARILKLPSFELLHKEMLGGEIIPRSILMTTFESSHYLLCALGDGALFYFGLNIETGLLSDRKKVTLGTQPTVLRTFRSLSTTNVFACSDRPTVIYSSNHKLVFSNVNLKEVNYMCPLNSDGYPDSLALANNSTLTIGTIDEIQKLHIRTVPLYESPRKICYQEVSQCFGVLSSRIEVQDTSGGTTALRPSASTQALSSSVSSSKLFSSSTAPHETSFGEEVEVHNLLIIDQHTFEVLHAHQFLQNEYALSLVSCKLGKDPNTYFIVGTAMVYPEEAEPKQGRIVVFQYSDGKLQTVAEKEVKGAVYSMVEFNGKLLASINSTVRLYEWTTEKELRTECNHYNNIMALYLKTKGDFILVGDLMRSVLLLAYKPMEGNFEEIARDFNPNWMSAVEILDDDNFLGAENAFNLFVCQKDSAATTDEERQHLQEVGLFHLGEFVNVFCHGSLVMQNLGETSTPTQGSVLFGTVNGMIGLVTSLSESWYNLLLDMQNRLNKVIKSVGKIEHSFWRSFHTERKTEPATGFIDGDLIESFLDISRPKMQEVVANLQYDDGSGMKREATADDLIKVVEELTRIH
E3 CRL4^CRBN, sequence (Q96SW2 whole entry partner): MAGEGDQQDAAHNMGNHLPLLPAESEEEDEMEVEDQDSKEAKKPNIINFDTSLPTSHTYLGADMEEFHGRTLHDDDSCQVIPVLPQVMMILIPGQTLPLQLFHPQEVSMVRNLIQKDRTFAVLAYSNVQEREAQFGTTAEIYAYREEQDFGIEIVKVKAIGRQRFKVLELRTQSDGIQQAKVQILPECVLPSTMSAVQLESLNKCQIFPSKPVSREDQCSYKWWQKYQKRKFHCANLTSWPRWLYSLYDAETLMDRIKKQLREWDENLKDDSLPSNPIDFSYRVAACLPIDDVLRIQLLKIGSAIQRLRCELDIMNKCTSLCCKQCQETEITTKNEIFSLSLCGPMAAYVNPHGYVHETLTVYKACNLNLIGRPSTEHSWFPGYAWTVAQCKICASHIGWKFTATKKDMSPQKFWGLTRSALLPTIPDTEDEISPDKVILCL

Broadly, the EC50 is the concentration needed to bring the measured effect to its halfway point. For `O=c1c(-c2cnn(-c3ccccc3)c2)c(C(F)(F)F)oc2c(O)c(O)ccc12` [#33-11, 7,8-dihydroxy-3-(1-phenyl-1H-pyrazol-4-yl)-2-(trifluoromethyl)-4H-chromen-4-one], the “inhibition of ubiquitination of CK1α” value against E3 CRL4^CRBN (at 30 μM) is listed as “Significant inhibitory effects”. Further, the “level of di-Ub product” value on ROC1-CUL1 (up to 150 μM) is recorded as “remained almost unchanged”. In addition, the EC50 with cancer cells (Table 6) worked out at 13 µM. Also, in the data set with CACO-2, the “A:B/B:A” value was 1.95, the Permeability entry was “high” and the PGP substrate entry is “probable”. Besides, the “Kinetic solubility, rating” value in the data set “Kinetic solubility” is “moderate solubility”. For the same compound, in “Mouse i.p. PK” (i.p. 100 mg/kg in DMSO), the Ctrough stood at 160 nM and the T1/2 was found to be 7.2 h. In “Mouse i.p. PK” (i.p. 100 mg/kg in DMSO, 0-24 hr), this compound came in with an AUC of 19.6 μM-hr. Besides, in data set [1] (tumor, mice dosed with #33-11, read-out: AUC in tumors), the AUC worked out at 0.75 µM·h. Also, the tumor growth inhibition result in the data set on MV4-11 tumors (earlier AML MV4-11 xenograft model study) was “did not reach statistically significant levels”.

In the case of `O=c1c(-c2cnn(-c3ccc(Cl)cc3)c2)c(C(F)(F)F)oc2c(O)c(O)ccc12` [KH-4-43, 3-(1-(4-chlorophenyl)-1H-pyrazol-4-yl)-7,8-dihydroxy-2-(trifluoromethyl)-4H-chromen-4-one], the “dose range inhibiting ubiquitination by CRL4” value on E3 CRL4^CRBN was approximately 10 µM. Besides, the “discharge of Cdc34-Ub and production of Ub2 by ROC1-CUL1” value at ROC1-CUL1 is “no effect”. Further, the EC50 in the data set on cancer cells (Table 1) worked out at 4 µM; with cancer cells (Table 6), 8 µM. Besides, in the data set with CACO-2, the Permeability entry is “highly permeable and high”. Also, in the data set on CACO-2, the PGP substrate result is reported as “not a substrate”. Further, in “Mouse i.p. PK” (i.p. 100 mg/kg), the “24 hr C-trough concentration” value is recorded as 89 nM. Also, in “Mouse i.p. PK” (i.p. 100 mg/kg), the tolerability entry was “well tolerated”. The same compound came in with a Ctrough in the data set “Mouse i.p. PK” (i.p. 100 mg/kg in DMSO) of 90 nM. The AUC in data set [1] (BALB/c nude, plasma, ip, G3, 50 mg/kg Q2D, read-out: AUC over 24 hours in plasma) was approximately 3.3 µM·h; in data set [1] (BALB/c nude, tumor, ip, G4, 50 mg/kg QD, read-out: AUC over 24 hours in tumor), approximately 4.7 µM·h. In addition, in data set [1] (in vivo), the “tumor AUC higher than with #33-11” value turned out to be 6 fold. Besides, the tumor inhibition value in the data set with MV4-11 tumors (G2, 25 mg/kg, Q2D) was 18.60%; in the data set on MV4-11 tumors (G3, 50 mg/kg, Q2D) it was 25.15%; with MV4-11 tumors (G4, 50 mg/kg, QD) it was 38.90%. The “safety by body weight loss guideline (>20% toxic)” value in the data set with MV4-11 tumors (tested dose levels 25 and 50 mg/kg) is recorded as “judged to be safe”.
